Tested on: DRD2-expressing cell line (DRD2-Strep Tag II fusion HEK293T)
Assay: Colocalization analysis via confocal microscopy of photo-cross-linked, dye-clicked probe in cells
Type: cell-based, human
Conditions: probe 5 μM, Alexa Fluor 555 azide clicked
Method: After the biochemical characterization of the dynamic interaction between the probe and target, we set out to characterize the static interaction: colocalization of probe and receptor in cells, with an emphasis on both on- and off-target labeling. Specifically, due to the known propensity for photo-cross-linking groups to nonspecifically label, we wanted a holistic view of how the probes interacted with whole cells. Thus, we treated our DRD2-expressing cell line with a 5 μM solution of the probe, photo-cross-linked, “clicked” on an azido fluorophore, and labeled the DRD2 receptor via an antibody conjugated to a complementary fluorophore (Figure 4a). Our results (Figure 4b) indicate that there is indeed background labeling with the probes. […] We therefore proceeded to quantify the specific vs nonspecific binding of the probe.
Figure 4 Photo-cross-linking of dye-clicked probe: confocal microscopy. (a) Schematic of the methodology used in the labeling process. […]
HEK293T cells and a stable HEK293T-derived cell line-expressing DRD2-Strep Tag II fusion were maintained in DMEM supplemented with 10% FBS, 100 U/mL penicillin, and 100 μg/mL streptomycin in a humidified atmosphere at 37 °C in 5% CO2. […] The cells were then washed 3 times with TBS and imaged for Alexa Fluor 488 fluorescence and AF555 fluorescence using a Zeiss LSM 980 with Airyscan 2. […]

SMILES | labeling of DRD2-expressing cells (confocal microscopy)
C#CCOc1ccc(C(=O)c2ccc(CNCCc3cccc4c3CC(=O)N4)cc2)cc1 [Compound 5, 4-(2-((4-(4-(Prop-2-yn-1-yloxy)benzoyl)benzyl)amino)ethyl)indolin-2-one] | higher avidity relative to the other probes
C#CCOc1ccc(C(=O)c2ccc(CN[C@H]3CCc4nc(N)sc4C3)cc2)cc1 [Compound 7, (S)-(4-(((2-Amino-4,5,6,7-tetrahydrobenzo[d]thiazol-6-yl)amino)methyl)phenyl)(4-(prop-2-yn-1-yloxy)phenyl)methanone] | higher avidity relative to the other probes

— paper PMC9585581, “Developing Photoaffinity Probes for Dopamine Receptor D2 to Determine Targets of Parkinson’s Disease Drugs” (ACS Chemical Neuroscience, 2022)
